Experiments:
Assay type in all cases: biochemical, Human Immunodeficiency Virus (HIV-1)
HIV-1 RT Y181C = biological target: T1, HIV-1 RT Y181C (Human immunodeficiency virus type 1 group M subtype B, UniProt P03367, Y780C); test: Reverse Transcriptase (RT) Assay, Y181C mutant enzyme; details: 1 µM compound; for inhibition at 1 µM: read-out: Reverse Transciptase Assay % inhibition (1 µM) Y181C
T1 construct: Utilization of mutant RT eraymes (Y181C and Y181L, prepared by site-directed mutagenesis); made in house
From the text: (§1) Among the enzymes for which Human Immunodeficiency Virus (HIV-1) encodes is a reverse transcriptase (1), so-named because it transcribes a DNA copy from an RNA template. This activity can be quantitatively measured in a cell-free enzyme assay, which has been previously described (2), and is based upon the observation that reverse transcriptase is able to use a synthetic template [poly r(C) primed with oligo d(G)] to transcribe a radio-labelled, acid-precipitable DNA strand utilizing ^3H-dGTP as a substrate. The assay described below utilizes the wild type (WT) enzyme, which is the predominant form of the enzyme observed in patients infected with HIV-1. Utilization of mutant RT eraymes (Y181C and Y181L, prepared by site-directed mutagenesis in which the tyrosine residue at codon 181 has been replaced by a cysteine or a leucine residue, respectively) and analogous assay conditions allows compounds to be evaluated for their effectiveness at inhibiting these mutant enzymes.
(§2) The 2X concentrated stock reaction mixture is aliquoted and stored at -20°C. The mixture is stable and thawed for use in each assay. This enzyme assay has been adapted to a 96 well microtiter plate system, and has been previously described (6). Tris buffer (50 mM, pH 7.4), vehicle (solvent diluted to match the compound dilution), or compounds in vehicle are dispensed into 96-well microtiter plates (10µL/well; 3 wells/ compound). The HIV-1 RT enzyme is thawed, diluted in 50mM Tris pH 7.4 so that fifteen µL of diluted enzyme contain 0.001 Unit (one unit is that amount of enzyme to transform 1 micromole of substrate per minute at 25°C), and fifteen µL are dispensed per well. Twenty µL of 0.12-0.5M EDTA are added to the first three wells of the microtiter plate. EDTA chelates the Mg^++ present and prevents reverse transcription. This group serves as background polymerization which is subtracted from all other groups. Twenty-five ul of the 2X reaction mixture are added to all wells and the assay is allowed to incubate at room temperature for 60 minutes. The assay is terminated by precipitating the DNA in each well with 50µL of 10% trichloracetic acid (TCA) (10% w/v) in sodium pyrophosphate (1% w/v). The microtiter plate is incubated for 15 minutes at 4°C and the precipitate is fixed onto #30 glass fiber paper (Schleicher & Schuell) using a Skatron semi-automatic harvester. The filters are then washed with additional TCA (5%) containing sodium pyrophosphate (1%), rinsed with aqueous ethanol (70%), dried, and transferred to scintillation vials (6). Each vial receives 2 mL of scintillation cocktail and is counted in a Beckman beta counter. The calculation for percent inhibition is as follows: % inhibition =(CPM Mean Test Value - CPM Mean Control Value X100)/(CPM Mean Control Value) [formula]

HIV-1 RT Y188L = biological target: T2, HIV-1 RT Y188L (Human immunodeficiency virus type 1 group M subtype B, UniProt P03367, Y787L); test: Reverse Transcriptase (RT) Assay, Y188L mutant enzyme; details: 1 µM compound
T2 construct: effective against the reverse transcriptase of many mutant viruses; made in house

[1] = biological target: T3, HIV-1 RT wild type (WT) enzyme (Human immunodeficiency virus type 1 group M subtype B, UniProt P03367); test: Reverse Transcriptase (RT) Assay, wild type enzyme (RNA-dependent DNA polymerase activity); details: 1 µM compound; for inhibition at 1 µM: read-out: Reverse Transciptase Assay % inhibition (1 µM) WT
T3 construct: Reverse transcriptase enzyme from the LAV strain of Human Immunodeficiency Virus (HIV-1) (1) was isolated from the bacterial strain JM109; made in house; host or cells: E. coli JM109 (clone pBRTprt1+ in vector pIBI21, lac promoter)
From the text: Utilizing the Reverse Transcriptase (RT) Assay described below, compounds can be tested for their ability to inhibit the RNA-dependent DNA polymerase activity of HIV-1 RT. Certain specific compounds described in the Examples which appear below, were so tested.
as §1
Reverse transcriptase enzyme from the LAV strain of Human Immunodeficiency Virus (HIV-1) (1) was isolated from the bacterial strain JM109 (3) expressing the DNA clone pBRTprt1+ (2) which is under the control of the lac promotor in the expression vector pIBI21 (4). An overnight culture grown in 2XYT medium (37°C, 225 rpm) (5) supplemented with 100 µg/mL ampicillin for positive selection is inoculated at a 1:40 dilution into M9 medium supplemented with 10µg/mL thiamine, 0.5% casamino acids, and 50 µg/mL ampicillin (5). The culture is incubated (37°C, 225 rpm) until it reaches an OD540 of 0.3-0.4. At that time the repressor inhibitor IPTG (isopropyl β-D-thiogalactopyranoside) is added to 0.5mM, and the mixture is incubated for 2 additional hours. Bacteria are pelleted, resuspended in a 50mM Tris, 0.6mM EDTA, 0.375M NaCl buffer and digested by the addition of lysozyme (1mg/mL) for 30 minutes on ice. The cells are lysed by the addition of 0.2% NP-40 and brought to 1M NaCl.
After removal of the insoluble debris by centrifugation, the protein is precipitated by the addition of 3 volumes of saturated aqueous ammonium sulfate. The enzyme is pelleted, resuspended in RT buffer (50mM Tris pH 7.5, 1mM EDTA, 5mM DTT, 0.1% NP-40, 0.1M NaCI, and 50% glycerol), and stored at -70°C for further use.
as §2, with “The filters are then washed with additional TCA (5%) containing sodium pyrophosphate (1%), rinsed with aqueous ethanol (70%), dried, and transferred to scintillation vials (6). Each vial receives 2 mL of scintillation cocktail and is counted in a Beckman beta counter. The calculation for percent inhibition is as follows: % inhibition =(CPM Mean Test Value - CPM Mean Control Value X100)/(CPM Mean Control Value) [formula]” left out

| Molecule | Reverse Transciptase Assay % inhibition (1 µM) Y181C (HIV-1 RT Y181C) [%] | Reverse Transciptase Assay % inhibition (1 µM) Y188L (HIV-1 RT Y188L) [%] | Reverse Transciptase Assay % inhibition (1 µM) WT [1] [%] | inhibition at 1 µM (HIV-1 RT Y181C) [%] | inhibition at 1 µM [1] [%] |
| --- | --- | --- | --- | --- | --- |
| 2-(1-Carbamylpyrazol-3-yl)-5,11-dihydro-11-ethyl-5-methyl-6H-dipyrido[3,2-b:2',3'-e][1,4]-diazepin-6-one [Example 7] | 84 | 52 | 94 | – | – |
| CCN1c2ncccc2C(=O)N(C)c2ccc(-c3cnn(C)c3)nc21 [Example 3, 5,11-Dihydro-11-ethyl-5-methyl-2-(1-methylpyrazol-4-yl)-6H-dipyrido[3,2-b:2',3'-e][1,4]-diazepin-6-one] | – | 24 | – | 36 | 63 |
| CCN1c2ncccc2C(=O)N(C)c2ccc(-c3cnn(C(C)=O)c3)nc21 [Example 8, 2-(1-Acetylpyrazol-4-yl)-5,11-dihydro-11-ethyl-5-methyl-6H-dipyrido[3,2-b:2',3'-e][1,4] diazepin-6-one] | – | 80 | – | 80 | 96 |
| CCN1c2ncccc2C(=O)N(C)c2ccc(-c3cc[nH]n3)nc21 [Example 9, 5,11-Dihydro-11-ethyl-5-methyl-2-(3-pyrazolyl)-6H-dipyrido[3,2-b:2',3'-e][1,4]diazepin-6-one] | – | 20 | – | 67 | 67 |
| CCN1c2ncccc2C(=O)N(C)c2ccc(-c3c[nH]nc3C)nc21 [Example 10, 5,11-Dihydro-11-ethyl-5-methyl-2-(3-methylpyrazol-4-yl)-6H-dipyrido[3,2-b:2',3'-e][1,4]-diazepin-6-one] | – | 66 | – | 73 | 94 |
| CCN1c2ncccc2C(=O)N(C)c2ccc(-c3cccn3C)nc21 [Example 11, 5,11-Dihydro-11-ethyl-5-methyl-2-(1-methylpyrrol-2-yl)-6H-dipyrido[3,2-b:2',3'-e][1,4]-diazepin-6-one] | – | – | – | – | 81 |
| CCN1c2ncccc2C(=O)N(C)c2ccc(-c3cccn3C(C)=O)nc21 [Example 14, 2-(1-Acetylpyrrol-2-yl)-5,11-dihydro-11-ethyl-5-methyl-6H-dipyrido[3,2-b:2',3'-e][1,4]-diazepin-6-one] | – | 23 | – | 51 | 74 |
| CCN1c2ncccc2C(=O)N(C)c2ccc(-c3cc[nH]c3C(C)=O)nc21 [Example 15, 2-(2-Acetylpyrrol-3-yl)-5,11-dihydro-11-ethyl-5-methyl-6H-dipyrido[3,2-b:2',3'-e][1,4]-diazepin-6-one] | – | 10 | – | 59 | 52 |
| CCOC(=O)c1cc(-c2ccc3c(n2)N(CC)c2ncccc2C(=O)N3C)c[nH]1 [Example 16, 5,11-Dihydro-2-[2-(ethoxycarbonyl)pyrrol-4-yl]-11-ethyl-5-methyl-6H-dipyrido-[3,2-b:2',3'-e][1,4]diazepin-6-one] | – | – | – | 74 | 83 |
| CCN1c2ncccc2C(=O)N(C)c2ccc(-c3c[nH]c(C(C)=O)c3)nc21 [Example 17, 2-(2-Acetylpyrrol-4-yl)-5,11-dihydro-11-ethyl-5-methyl-6H-dipyrido[3,2-b:2',3'-e][1,4]-diazepin-6-one] | – | 27 | – | 62 | 78 |
| CCN1c2ncccc2C(=O)N(C)c2ccc(-c3cc[nH]c3C#N)nc21 [Example 18, 2-(2-Cyanopyrrol-3-yl)-5,11-dihydro-11-ethyl-5-methyl-6H-dipyrido[3,2-b:2',3'-e][1,4]-diazepin-6-one] | – | 57 | – | 82 | 87 |
| CCN1c2ncccc2C(=O)N(C)c2ccc(-c3c[nH]c(C#N)c3)nc21 [Example 19, 2-(2-Cyanopyrrol-4-yl)-5,11-dihydro-11-ethyl-5-methyl-6H-dipyrido[3,2-b:2',3'-e][1,4]-diazepin-6-one] | – | 55 | – | 75 | 91 |
| CCN1c2ncccc2C(=O)N(C)c2ccc(-c3ccn(C)c3)nc21 [Example 20, 5,11-Dihydro-11-ethyl-5-methyl-2-(1-methylpyrrol-3-yl)-6H-dipyrido[3,2-b:2',3'-e][1,4]-diazepin-6-one] | – | 26 | – | 36 | 65 |
| CCN1c2ncccc2C(=O)N(C)c2ccc(-c3c[nH]c(C(=O)O)c3)nc21 [Example 21, 2-(2-Carboxypyrrol-4-yl)-5,11-dihydro-11-ethyl-5-methyl-6H-dipyrido[3,2-b:2',3'-e][1,4]-diazepin-6-one] | – | 46 | – | 28 | 33 |
| CCN1c2ncccc2C(=O)N(C)c2ccc(-c3c[nH]c(C(N)=O)c3)nc21 [Example 22, 2-(2-Carbamylpyrrol-4-yl)-5,11-dihydro-11-ethyl-5-methyl-6H-dipyrido[3,2-b:2',3'-e][1,4]-diazepin-6-one] | – | 30 | – | 72 | 76 |
| CCN1C(=O)c2cccnc2N(C)c2nc(-c3ccc[nH]3)ccc21 [Example 23, 5,11-Dihydro-5-ethyl-11-methyl-2-(2-pyrrolyl)-6H-dipyrido[3,2-b:2',3'-e][1,4]diazepin-6-one] | – | 47 | – | 37 | 58 |
